Data taken from article PMC3604760 (mBio, 2013).

Assays:
MBP-cTlp1 [1] = biological target: MBP-cTlp1 (Azospirillum brasilense, UniProt Q64I05); assay: equilibrium dialysis, HPLC quantification; type: binding
MBP-cTlp1 [2] = biological target: MBP-cTlp1 (Azospirillum brasilense, UniProt Q64I05, R562A); assay: equilibrium dialysis, HPLC quantification; type: binding
Chain of MBP-cTlp1 (Azospirillum brasilense, UniProt Q64I05, R562A) (Q64I05 344-660 R562A): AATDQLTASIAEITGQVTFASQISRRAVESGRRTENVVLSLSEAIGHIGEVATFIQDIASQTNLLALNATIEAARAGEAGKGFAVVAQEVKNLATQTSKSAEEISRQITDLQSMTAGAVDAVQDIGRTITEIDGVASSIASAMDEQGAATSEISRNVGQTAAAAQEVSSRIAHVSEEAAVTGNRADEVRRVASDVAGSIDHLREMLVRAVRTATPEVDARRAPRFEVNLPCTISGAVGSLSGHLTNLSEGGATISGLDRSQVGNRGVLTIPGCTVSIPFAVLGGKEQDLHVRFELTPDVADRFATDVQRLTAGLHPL

Chain of MBP-cTlp1 (Azospirillum brasilense, UniProt Q64I05) (Q64I05 344-660): as the sequence (Q64I05 344-660 R562A) above, with A219R counted along it

In the case of `Nc1nc2c(ncn2[C@@H]2O[C@@H]3CO[P@](=O)(O)O[C@H]4[C@@H](O)[C@H](n5cnc6c(=O)[nH]c(N)nc65)O[C@@H]4CO[P@](=O)(O)O[C@H]3[C@H]2O)c(=O)[nH]1` [c-di-GMP], the Kd (MBP-cTlp1 [1]) is reported as 6.9 ± 1.2 µM and the Kd (MBP-cTlp1 [2]) is reported as 21.8 ± 7.1 µM.
